Patent US10329277B2, “N-(2-((2-(dimethylamino)ethyl)(methyl)amino)-4-methoxy-5-((4-(3-methyl-2-OXO-2,3-dihydro-1h-benzo[d]imidazol-1-yl)pyrimidin-2-yl)amino)phenyl)acrylamide hydrochloride as an inhibitor of epidermal growth factor receptor activity” (CHIA TAI TIANQING PHARMACEUTICAL GROUP CO., LTD., priority 2015, dated 2019)
Structures can show the parent of a compound that is named as a salt. Where two headings read alike, the source gives them in different places.

Key:
[1] = system: Human skin squamous carcinoma cell line A431; assay: Cell proliferation assay, A431 (soft agar, CellTiter-Blue); assay type: cell-based; conditions: A-431, 168 h, A431, treatment 7 days, read-out: Cell viability (IC50 nM) A431
Procedure: Human skin squamous carcinoma cell line A431 was cultured in DMEM supplemented with 10% fetal bovine serum and 1% penicillin-plus-streptomycin in a cell incubator (37° C., 5% CO2). In the tests of the compounds, the bottom substrate was at a concentration of 0.6%. Cells were re-suspended with 0.3% low-melting-point agar, and then seeded in a 96-well plate at a density of 2,000 cells per well (100 μl). The compounds were diluted at a 3-fold gradient with a starting concentration of 10 mM. 2 μl of each concentration was taken and added to 98 μl of culture medium, and then 5.3 μl of the mixture was added to the cell culture medium (final DMSO concentration being 0.1%, v/v). After treatment for one week (7 days), 20 μl of CellTiter-Blue® (Promega) reagent was added, and the plate was incubated at 37° C. for 4 hours. Fluorescence signals were read on Envison (Perkin Elmer), and IC50 values of the compound for inhibiting cell proliferation were calculated using GraphPad Prism 5.0.

[2] = system: Human non-small cell lung cancer cells NCI-H1975; assay: Cell proliferation assay, NCI-H1975 (CellTiter-Glo); assay type: cell-based; conditions: NCI-H1975, treatment 72 hours, read-out: Cell viability (IC50 nM) NCI-H1975
Procedure: Human non-small cell lung cancer cells NCI-H1975 were cultured in RPIM-1640 culture medium supplemented with 10% fetal bovine serum and 1% penicillin-plus-streptomycin in a cell incubator (37° C., 5% CO2). The cells were seeded in a 96-well plate at a density of 2,000 cells per well (volume: 195 μl) and cultured overnight. On the next day, the compounds were added. In particular, the compounds were diluted at a 3-fold gradient with a starting concentration of 10 mM. 4 μl of each concentration was taken and added into 96 μl of culture medium. […] After treatment for 72 hours, the medium was aspirated and 30 μl of CellTiter-Glo® (Promega) reagent was added. Fluorescence signals were read on Envison (Perkin Elmer), and IC50 values of the compounds for inhibiting cell proliferation were calculated using GraphPad Prism 5.0.

EGFR(WT) = biological target: T1, EGFR(WT) (Homo sapiens, UniProt P00533); assay: In vitro enzymatic assay (HTRF), EGFR kinase; assay type: biochemical
T1 construct: made in house; host or cells: insect cell expression system
T1 sequence (P00533 25-1210): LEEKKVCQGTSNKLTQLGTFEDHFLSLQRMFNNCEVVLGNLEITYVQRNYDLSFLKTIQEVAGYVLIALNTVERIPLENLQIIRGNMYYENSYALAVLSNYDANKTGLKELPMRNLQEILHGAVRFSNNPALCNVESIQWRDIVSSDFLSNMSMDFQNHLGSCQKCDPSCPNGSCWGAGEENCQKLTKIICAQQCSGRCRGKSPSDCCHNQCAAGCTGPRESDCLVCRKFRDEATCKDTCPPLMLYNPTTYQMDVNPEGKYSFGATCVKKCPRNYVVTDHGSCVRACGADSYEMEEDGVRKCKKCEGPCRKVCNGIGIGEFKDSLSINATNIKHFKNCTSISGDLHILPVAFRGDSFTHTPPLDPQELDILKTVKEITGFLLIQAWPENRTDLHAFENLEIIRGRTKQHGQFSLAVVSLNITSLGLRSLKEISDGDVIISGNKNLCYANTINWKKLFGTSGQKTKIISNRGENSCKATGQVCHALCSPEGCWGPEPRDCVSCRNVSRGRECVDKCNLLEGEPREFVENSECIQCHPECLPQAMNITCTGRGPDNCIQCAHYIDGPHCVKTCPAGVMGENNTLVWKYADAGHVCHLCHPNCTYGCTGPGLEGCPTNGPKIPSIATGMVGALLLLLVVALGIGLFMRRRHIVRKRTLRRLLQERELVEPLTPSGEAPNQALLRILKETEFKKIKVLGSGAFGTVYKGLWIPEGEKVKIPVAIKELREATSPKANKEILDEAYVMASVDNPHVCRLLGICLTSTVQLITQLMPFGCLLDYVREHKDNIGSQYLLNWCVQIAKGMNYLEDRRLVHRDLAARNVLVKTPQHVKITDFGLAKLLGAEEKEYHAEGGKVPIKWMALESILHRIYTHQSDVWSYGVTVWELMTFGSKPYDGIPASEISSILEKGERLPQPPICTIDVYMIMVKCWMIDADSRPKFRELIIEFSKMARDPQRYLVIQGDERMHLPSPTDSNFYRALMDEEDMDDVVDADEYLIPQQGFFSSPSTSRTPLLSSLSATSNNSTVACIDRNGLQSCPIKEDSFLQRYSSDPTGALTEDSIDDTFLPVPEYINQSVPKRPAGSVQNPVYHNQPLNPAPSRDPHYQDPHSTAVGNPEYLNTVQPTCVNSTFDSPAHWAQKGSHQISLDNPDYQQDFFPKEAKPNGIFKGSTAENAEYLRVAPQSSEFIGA

[3] = Pharmacokinetic assay in rats; assay type: in vivo; conditions: PO 10 mg/kg single dose, plasma
Procedure: Healthy adult male rats were subjected to single-dose intragastric administration of the test compounds at a dose of 10 mg/kg with 20% sulfobutyl ether-β-cyclodextrin as an excipient. Before the experiment, the animals were fasted overnight, and the fasting time last from 10 hrs prior to the administration to 4 hrs after the administration. At 0.25, 0.5, 1, 2, 4, 6, 8 and 24 hrs after the intragastric administration, blood sampling was conducted. Approximately 0.3 mL of whole blood was collected from retro-orbital venous sinus, and placed into tubes that contained heparin as an anticoagulant. The samples were centrifuged at 4° C. and 4000 rpm for 5 min. The plasma was transferred into centrifuge tubes, and stored at −80° C. till being analyzed. Concentrations of test compounds in the plasma samples were analyzed with non-validated liquid chromatography-tandem mass spectrometry (LC-MS/MS). Plasma concentration-time data of individual animals was analyzed using WinNonlin (Professional Edition, version 6.3; Pharsight Company) software. Non-compartmental model was introduced in concentration analysis. The pharmacokinetic parameters of the test compounds were calculated.

[4] = male rats, Hydrochloride, 10 mg/kg

SMILES: C=CC(=O)Nc1cc(Nc2nccc(-c3cn(C)c4ccccc34)n2)c(OC)cc1N(C)CCN(C)C [AZD9291, reference compound]
- IC50 [1]: 53.5 nM
- IC50 [2]: 9.08 nM

SMILES: C=CC(=O)Nc1cc(Nc2nccc(-n3c(=O)n(C)c4ccccc43)n2)c(OC)cc1N(C)CCN(C)C [Example 1, N-(2-((2-(dimethylamino)ethyl)(methyl)amino)-4-methoxy-5-(4-(3-methyl-2-oxo-2,3-dihydro-1H-benzo[d]imidazol-1-yl)pyrimidin-2-ylamino)phenyl)acrylamide Hydrochloride]
- IC50 (EGFR(WT)): 9.07 nM
- IC50 [1]: 22.5 nM
- IC50 [2]: 2.76 nM
- Tmax ([3]; male rats): 40.2 min
- AUC0-INF [3, 4]: 667 ng·h/mL
- Cmax [3, 4]: 272 ng/mL
- t1/2 [3, 4]: 67.2 min

SMILES: C=CC(=O)Nc1cc(Nc2nccc(-n3c(=O)[nH]c4ccccc43)n2)c(OC)cc1N(C)CCN(C)C [Example 2, N-(2-((2-(dimethylamino)ethyl)(methyl)amino)-4-methoxy-5-(4-(2-oxo-2,3-dihydrobenzo[d]imidazol-1-yl)pyrimidin-2-ylamino)phenyl)acrylamide Hydrochloride]
- IC50 (EGFR(WT)): 2.59 nM
- IC50 [2]: 0.96 nM

SMILES: C=CC(=O)Nc1cc(Nc2ncc(Cl)c(-n3c(=O)n(C)c4ccccc43)n2)c(OC)cc1N(C)CCN(C)C [Example 3, N-(5-(5-chloro-4-(3-methyl-2-oxo-2,3-dihydro-1H-benzo[d]imidazol-1-yl)pyrimidin-2-ylamino)-2-((2-(dimethylamino)ethyl)(methyl)amino)-4-methoxyphenyl) acrylamide Hydrochloride]
- IC50 (EGFR(WT)): 196 nM

SMILES: C=CC(=O)Nc1cc(Nc2ncc(Cl)c(-n3c(=O)[nH]c4ccccc43)n2)c(OC)cc1N(C)CCN(C)C [Example 4, N-(5-(5-chloro-4-(2-oxo-2,3-dihydro-1H-benzo[d]imidazol-1-yl)pyrimidin-2-ylamino)-2-((2-(dimethylamino)ethyl)(methyl)amino)-4-methoxyphenyl) acrylamide Hydrochloride]
- IC50 (EGFR(WT)): 20.6 nM
- IC50 [2]: 2.87 nM

SMILES: C=CC(=O)Nc1cc(Nc2nccc(-n3c(=O)oc4ccccc43)n2)c(OC)cc1N(C)CCN(C)C [Example 5, N-(2-((2-(dimethylamino)ethyl)(methyl)amino)-4-methoxy-5-(4-(2-oxobenzo[d]oxazol-3(2H)-yl)pyrimidin-2-ylamino)phenyl) acrylamide Hydrochloride]
- IC50 (EGFR(WT)): 44.9 nM
- IC50 [2]: 17 nM

SMILES: COC/C=C/C(=O)Nc1cc(Nc2nccc(-n3c(=O)n(C)c4ccccc43)n2)c(OC)cc1N(C)CCN(C)C [Example 7, (E)-N-(2-((2-(dimethylamino)ethyl)(methyl)amino)-4-methoxy-5-(4-(3-methyl-2-oxo-2,3-dihydro-1H-benzo[d]imidazol-1-yl)pyrimidin-2-ylamino)phenyl)-4-methoxybut-2-enamide]
- IC50 (EGFR(WT)): 164 nM

SMILES: C=CC(=O)Nc1cc(Nc2nccc(-n3c(=O)[nH]c4cc(C)ccc43)n2)c(OC)cc1N(C)CCN(C)C [Example 9, N-(2-((2-(dimethylamino)ethyl)(methyl)amino)-4-methoxy-5-(4-(5-methyl-2-oxo-2,3-dihydrobenzo[d]imidazol-1-yl)pyrimidin-2-ylamino)phenyl)acrylamide Hydrochloride]
- IC50 (EGFR(WT)): 3.93 nM

SMILES: C=CC(=O)Nc1cc(Nc2nccc(-n3c(=O)n(C)c4cc(F)ccc43)n2)c(OC)cc1N(C)CCN(C)C [Example 10, N-(2-((2-(dimethylamino)ethyl)(methyl)amino)-5-(4-(5-fluoro-3-methyl-2-oxo-2,3-dihydrobenzo[d]imidazol-1-yl)pyrimidin-2-ylamino)-4-methoxyphenyl) acrylamide Hydrochloride]
- IC50 (EGFR(WT)): 10.7 nM
- IC50 [2]: 1.46 nM

SMILES: C=CC(=O)Nc1cc(Nc2nccc(-n3c(=O)[nH]c4cc(F)ccc43)n2)c(OC)cc1N(C)CCN(C)C [Example 11, N-(2-((2-(dimethylamino)ethyl)(methyl)amino)-5-(4-(5-fluoro-2-oxo-2,3-dihydrobenzo[d]imidazol-1-yl)pyrimidin-2-ylamino)-4-methoxyphenyl)acrylamide Hydrochloride]
- IC50 (EGFR(WT)): 2.79 nM
- IC50 [2]: 3.7 nM

SMILES: C=CC(=O)Nc1cc(Nc2nccc(-n3c(=O)n(C)c4ccccc43)n2)c(OC)cc1N(C)CCNC [Example 12, N-(4-methoxy-2-(methyl(2-(methylamino)ethyl)amino)-5-(4-(3-methyl-2-oxo-2,3-dihydrobenzo[d]imidazol-1-yl)pyrimidin-2-ylamino)phenyl)acrylamide Hydrochloride]
- IC50 (EGFR(WT)): 5.26 nM
- IC50 [2]: 3.17 nM

SMILES: C=CC(=O)Nc1cc(Nc2nccc(-n3c(=O)n(C)c4ccccc43)n2)c(OC)cc1N(C)CCN(C)C [Example 13, N-(2-((2-(dimethylamino)ethyl)(methyl)amino)-4-methoxy-5-(4-(3-methyl-2-oxo-2,3-dihydro-1H-benzo[d]imidazol-1-yl)pyrimidin-2-ylamino)phenyl)acrylamide]
- Cmax ([3]; male rats, 10 mg/kg): 94.4 ng/mL
- t1/2 ([3]; male rats, 10 mg/kg): 147 min
- AUC(0-inf) ([3]; male, rat, po, 10 mg/kg): 401 ng·h/mL
- Tmax ([3]; rat, male rats, read-out: Tmax): 40.2 min

SMILES: C=CC(=O)Nc1cc(Nc2nccc(-n3c(=O)n(C)c4cc(Cl)ccc43)n2)c(OC)cc1N(C)CCN(C)C [Example 14, N-(5-(4-(5-chloro-3-methyl-2-oxo-2,3-dihydro-1H-benzo[d]imidazole-1-yl)pyrimidin-2-ylamino)-2-((2-(dimethylamino)ethyl)(methyl)amino)-4-methoxyphenyl) acrylamide Hydrochloride]
- IC50 [1]: 538 nM
- IC50 [2]: 4.56 nM

SMILES: C=CC(=O)Nc1cc(Nc2nccc(-n3c(=O)n(C)c4cc(Br)ccc43)n2)c(OC)cc1N(C)CCN(C)C [Example 15, N-(5-(4-(5-bromo-3-methyl-2-oxo-2,3-dihydro-1H-benzo[d]imidazole-1-yl)pyrimidin-2-ylamino)-2-((2-(dimethylamino)ethyl)(methyl)amino)-4-methoxyphenyl) acrylamide Hydrochloride]
- IC50 [1]: 834 nM
- IC50 [2]: 6.83 nM
